Measurements published in ChEMBL document CHEMBL1201862, “PubChem BioAssay data set” (2004).
Active and inactive are the calls of the source.

Legend:
Cytochrome P450 2C19 = Cytochrome P450 2C19 (Homo sapiens, UniProt P33261); assay: Cytochrome panel assay with activity outcomes. Panel member name: p450-cyp2c19 Compounds with AC50 equal or less than 10 uM are considered active; assay type: functional; conditions: read-out: AC50
Cytochrome P450 3A4 = Cytochrome P450 3A4 (Homo sapiens, UniProt P08684);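 note: CYP3A4 tested as one member of a cytochrome P450 panel screen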
Cytochrome P450 3A4, sequence (P08684 whole entry): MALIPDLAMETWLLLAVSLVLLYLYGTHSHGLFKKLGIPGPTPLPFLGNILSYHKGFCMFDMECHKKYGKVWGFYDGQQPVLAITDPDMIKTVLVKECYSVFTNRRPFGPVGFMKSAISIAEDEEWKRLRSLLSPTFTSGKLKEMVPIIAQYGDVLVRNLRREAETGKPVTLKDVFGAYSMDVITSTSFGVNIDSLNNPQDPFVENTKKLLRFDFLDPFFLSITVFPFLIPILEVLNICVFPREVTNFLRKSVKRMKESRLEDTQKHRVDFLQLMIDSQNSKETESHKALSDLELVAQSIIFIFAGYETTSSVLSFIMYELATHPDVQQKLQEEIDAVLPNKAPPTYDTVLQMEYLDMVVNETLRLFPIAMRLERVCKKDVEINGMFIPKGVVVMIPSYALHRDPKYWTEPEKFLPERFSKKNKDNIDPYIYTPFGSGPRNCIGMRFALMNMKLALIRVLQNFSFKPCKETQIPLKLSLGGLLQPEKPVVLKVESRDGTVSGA

Cytochrome P450 2C9 = Cytochrome P450 2C9 (Homo sapiens, UniProt P11712)
Cytochrome P450 2C9, sequence (P11712 whole entry): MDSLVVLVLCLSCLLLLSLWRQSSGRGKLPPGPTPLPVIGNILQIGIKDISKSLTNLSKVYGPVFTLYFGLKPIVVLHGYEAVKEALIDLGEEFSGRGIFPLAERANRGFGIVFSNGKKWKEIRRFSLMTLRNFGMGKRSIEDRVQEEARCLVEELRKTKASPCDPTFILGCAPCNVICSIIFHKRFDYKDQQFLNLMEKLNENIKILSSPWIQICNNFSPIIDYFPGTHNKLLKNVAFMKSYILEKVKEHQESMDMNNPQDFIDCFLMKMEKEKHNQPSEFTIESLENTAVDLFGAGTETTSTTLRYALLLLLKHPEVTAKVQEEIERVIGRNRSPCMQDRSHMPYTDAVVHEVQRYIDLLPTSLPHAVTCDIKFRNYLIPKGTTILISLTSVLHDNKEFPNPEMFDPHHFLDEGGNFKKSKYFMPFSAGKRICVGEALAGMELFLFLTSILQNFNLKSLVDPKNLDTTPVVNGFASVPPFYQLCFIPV

Leucine aminopeptidase = target: T1, Leucine aminopeptidase (Plasmodium falciparum 3D7, UniProt Q8IL11); assay: P. falciparum M17LAP inhibitors, primary screen, biochemical, fluorogenic H-Leu-NHMec substrate, 1536-well (AID 1619); assay type: functional
T1 sequence (Q8IL11 whole entry): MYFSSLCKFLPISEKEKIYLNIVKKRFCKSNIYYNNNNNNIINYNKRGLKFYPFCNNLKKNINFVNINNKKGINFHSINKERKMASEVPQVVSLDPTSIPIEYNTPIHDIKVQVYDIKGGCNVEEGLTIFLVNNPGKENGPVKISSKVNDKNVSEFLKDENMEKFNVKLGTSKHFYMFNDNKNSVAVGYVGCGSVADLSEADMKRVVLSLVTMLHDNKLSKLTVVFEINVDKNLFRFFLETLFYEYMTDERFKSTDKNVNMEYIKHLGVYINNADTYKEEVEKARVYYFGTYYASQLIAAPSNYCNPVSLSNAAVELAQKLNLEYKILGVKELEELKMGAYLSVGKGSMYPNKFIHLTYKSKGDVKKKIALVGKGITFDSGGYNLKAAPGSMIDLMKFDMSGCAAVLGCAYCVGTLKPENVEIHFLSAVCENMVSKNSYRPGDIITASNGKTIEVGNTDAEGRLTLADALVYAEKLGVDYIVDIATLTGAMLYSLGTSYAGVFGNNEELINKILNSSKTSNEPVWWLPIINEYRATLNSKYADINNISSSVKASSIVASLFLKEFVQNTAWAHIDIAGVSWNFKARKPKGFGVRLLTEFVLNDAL

Aminopeptidase N = target: T2, Aminopeptidase N (Plasmodium falciparum FcB1/Columbia, UniProt O96935); assay: malaria alanyl aminopeptidase activity blockers – biochemical, fluorogenic H-Leu-NHMec substrate, 1536-well (AID 1445); set-up: species or system Plasmodium falciparum 3D7, 3D7
T2 sequence (O96935 whole entry): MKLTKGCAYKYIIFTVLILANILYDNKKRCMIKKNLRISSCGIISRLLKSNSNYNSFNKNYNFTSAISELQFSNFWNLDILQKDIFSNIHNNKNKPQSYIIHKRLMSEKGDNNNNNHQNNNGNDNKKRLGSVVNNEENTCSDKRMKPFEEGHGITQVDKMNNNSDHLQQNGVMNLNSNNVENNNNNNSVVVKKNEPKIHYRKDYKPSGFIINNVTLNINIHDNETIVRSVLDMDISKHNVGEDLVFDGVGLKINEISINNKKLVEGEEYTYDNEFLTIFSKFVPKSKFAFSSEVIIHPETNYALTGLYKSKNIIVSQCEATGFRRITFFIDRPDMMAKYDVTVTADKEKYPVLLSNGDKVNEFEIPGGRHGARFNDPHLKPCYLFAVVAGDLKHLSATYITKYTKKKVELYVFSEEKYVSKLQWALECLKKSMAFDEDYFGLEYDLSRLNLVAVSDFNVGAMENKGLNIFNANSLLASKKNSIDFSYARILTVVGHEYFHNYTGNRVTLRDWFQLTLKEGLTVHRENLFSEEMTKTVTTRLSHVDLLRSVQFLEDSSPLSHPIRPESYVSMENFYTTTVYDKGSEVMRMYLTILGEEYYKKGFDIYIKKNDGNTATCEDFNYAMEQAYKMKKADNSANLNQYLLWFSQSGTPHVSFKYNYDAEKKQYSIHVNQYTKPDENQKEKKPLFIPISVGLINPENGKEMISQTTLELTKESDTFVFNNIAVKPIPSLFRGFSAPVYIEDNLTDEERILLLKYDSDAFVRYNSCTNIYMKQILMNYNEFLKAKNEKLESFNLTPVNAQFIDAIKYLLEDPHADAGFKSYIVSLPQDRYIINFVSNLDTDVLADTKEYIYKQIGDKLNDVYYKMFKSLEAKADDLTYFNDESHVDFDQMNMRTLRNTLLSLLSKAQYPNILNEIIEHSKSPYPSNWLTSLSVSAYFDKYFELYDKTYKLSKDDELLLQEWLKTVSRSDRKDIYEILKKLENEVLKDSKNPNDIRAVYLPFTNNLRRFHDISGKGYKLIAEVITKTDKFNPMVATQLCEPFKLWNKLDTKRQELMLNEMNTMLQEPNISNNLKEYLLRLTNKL

[1] = target: Induced myeloid leukemia cell differentiation protein Mcl-1 (Homo sapiens, UniProt Q07820); assay type: functional
Induced myeloid leukemia cell differentiation protein Mcl-1, sequence (Q07820 whole entry): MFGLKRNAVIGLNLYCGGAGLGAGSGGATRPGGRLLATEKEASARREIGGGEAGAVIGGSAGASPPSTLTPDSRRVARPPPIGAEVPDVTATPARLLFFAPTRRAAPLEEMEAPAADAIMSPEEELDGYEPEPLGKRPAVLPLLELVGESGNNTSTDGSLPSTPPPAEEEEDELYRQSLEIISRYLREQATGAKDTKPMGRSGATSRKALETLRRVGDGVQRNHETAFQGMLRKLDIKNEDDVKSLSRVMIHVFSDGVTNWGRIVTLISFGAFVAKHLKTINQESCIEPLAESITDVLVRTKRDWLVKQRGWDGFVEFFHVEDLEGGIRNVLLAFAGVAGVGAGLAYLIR

[2] = HEK-293T viability loss after treatment – luminescence, T-cell screen hits, cytotoxicity control for TCR NF-kB inhibitor project, dose response (AID 489026); assay type: functional, cell-based;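 note: cells exposed to compound about 14 hours before the viability readout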
INS1 = assay: INS-1E survival protection against cytokine death – cell-based, luminescence, retest, dose response (AID 449756); assay type: functional; conditions: Rattus norvegicus;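 note: cell death triggered by IL-1 beta plus TNF-alpha plus IFN-gamma mixture; protective hits raise ATP signal compared with cytokine alone wells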
HEK293 = assay: EBV LMP1 TES2 canonical NF-kB signalling blockers – cell-based, HEK293, luciferase, cherry-pick, dose response (AID 588343); assay type: functional; conditions: Homo sapiens
[3] = THP-1 cell cytotoxicity, dose response, cytotoxicity control for non-replicating M. tuberculosis project (AID 489025); assay type: functional
[4] = target: T3, Microphthalmia-associated transcription factor (Homo sapiens, UniProt O75030); assay: reducers of TRPM1 reporter luminescence, concentration series – cell-based, SK-MEL-5, cherry-picked, set 3, MITF inhibitor project, dose response (AID 493073); assay type: functional;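 note: SK-MEL-5 melanoma cells with luciferase driven by the MITF target TRPM1 promoter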
T3 sequence (O75030 whole entry): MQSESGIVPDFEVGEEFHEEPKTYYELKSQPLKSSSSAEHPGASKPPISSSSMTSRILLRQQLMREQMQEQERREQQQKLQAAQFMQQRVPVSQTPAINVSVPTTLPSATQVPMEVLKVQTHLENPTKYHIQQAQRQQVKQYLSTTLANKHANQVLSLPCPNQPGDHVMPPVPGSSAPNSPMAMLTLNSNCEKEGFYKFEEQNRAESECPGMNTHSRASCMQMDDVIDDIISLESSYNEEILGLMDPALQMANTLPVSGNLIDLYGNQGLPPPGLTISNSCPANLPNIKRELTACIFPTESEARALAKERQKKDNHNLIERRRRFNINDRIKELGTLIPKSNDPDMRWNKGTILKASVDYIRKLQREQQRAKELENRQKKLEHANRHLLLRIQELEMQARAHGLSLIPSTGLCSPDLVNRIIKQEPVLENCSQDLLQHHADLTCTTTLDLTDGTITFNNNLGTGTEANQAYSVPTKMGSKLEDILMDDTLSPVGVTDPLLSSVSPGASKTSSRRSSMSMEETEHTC

[5] = target: T4, Heat shock factor protein 1 (Mus musculus, UniProt P38532); assay: enhancement of HSF1-driven luciferase signal – cell-based, NIH3T3, luminescence, dose retest, confirmation (AID 435004); assay type: functional;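 note: stress induced by proteasome inhibitor MG132 added 30 min after compound; luciferase reporter driven by HSF1 response element in NIH3T3 cells; actives raise luminescence as potentiators of the MG132 stress response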
T4 sequence (P38532 whole entry): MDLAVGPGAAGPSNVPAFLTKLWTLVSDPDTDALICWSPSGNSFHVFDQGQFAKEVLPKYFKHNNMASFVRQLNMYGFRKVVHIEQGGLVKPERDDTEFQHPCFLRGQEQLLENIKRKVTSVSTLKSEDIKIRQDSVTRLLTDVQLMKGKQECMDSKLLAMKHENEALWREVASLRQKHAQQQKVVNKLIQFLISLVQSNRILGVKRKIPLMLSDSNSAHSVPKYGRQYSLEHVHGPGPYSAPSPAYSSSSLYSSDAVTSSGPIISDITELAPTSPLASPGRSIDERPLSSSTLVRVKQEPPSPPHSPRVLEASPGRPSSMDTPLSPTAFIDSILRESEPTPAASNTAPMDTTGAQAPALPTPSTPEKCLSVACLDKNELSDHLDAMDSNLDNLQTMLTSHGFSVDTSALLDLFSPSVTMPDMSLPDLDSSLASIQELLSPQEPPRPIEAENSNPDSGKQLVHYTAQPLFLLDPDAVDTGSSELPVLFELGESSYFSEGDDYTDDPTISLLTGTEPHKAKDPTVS

[6] = target: Heat shock protein HSP 90-alpha (Homo sapiens, UniProt P07900); assay type: functional, organism-based
[7] = target: Voltage-dependent T-type calcium channel subunit alpha-1H (Homo sapiens, UniProt O95180); assay type: functional;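 note: channel activity triggered by adding a high calcium stimulation buffer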
Voltage-dependent T-type calcium channel subunit alpha-1H, sequence (O95180 whole entry): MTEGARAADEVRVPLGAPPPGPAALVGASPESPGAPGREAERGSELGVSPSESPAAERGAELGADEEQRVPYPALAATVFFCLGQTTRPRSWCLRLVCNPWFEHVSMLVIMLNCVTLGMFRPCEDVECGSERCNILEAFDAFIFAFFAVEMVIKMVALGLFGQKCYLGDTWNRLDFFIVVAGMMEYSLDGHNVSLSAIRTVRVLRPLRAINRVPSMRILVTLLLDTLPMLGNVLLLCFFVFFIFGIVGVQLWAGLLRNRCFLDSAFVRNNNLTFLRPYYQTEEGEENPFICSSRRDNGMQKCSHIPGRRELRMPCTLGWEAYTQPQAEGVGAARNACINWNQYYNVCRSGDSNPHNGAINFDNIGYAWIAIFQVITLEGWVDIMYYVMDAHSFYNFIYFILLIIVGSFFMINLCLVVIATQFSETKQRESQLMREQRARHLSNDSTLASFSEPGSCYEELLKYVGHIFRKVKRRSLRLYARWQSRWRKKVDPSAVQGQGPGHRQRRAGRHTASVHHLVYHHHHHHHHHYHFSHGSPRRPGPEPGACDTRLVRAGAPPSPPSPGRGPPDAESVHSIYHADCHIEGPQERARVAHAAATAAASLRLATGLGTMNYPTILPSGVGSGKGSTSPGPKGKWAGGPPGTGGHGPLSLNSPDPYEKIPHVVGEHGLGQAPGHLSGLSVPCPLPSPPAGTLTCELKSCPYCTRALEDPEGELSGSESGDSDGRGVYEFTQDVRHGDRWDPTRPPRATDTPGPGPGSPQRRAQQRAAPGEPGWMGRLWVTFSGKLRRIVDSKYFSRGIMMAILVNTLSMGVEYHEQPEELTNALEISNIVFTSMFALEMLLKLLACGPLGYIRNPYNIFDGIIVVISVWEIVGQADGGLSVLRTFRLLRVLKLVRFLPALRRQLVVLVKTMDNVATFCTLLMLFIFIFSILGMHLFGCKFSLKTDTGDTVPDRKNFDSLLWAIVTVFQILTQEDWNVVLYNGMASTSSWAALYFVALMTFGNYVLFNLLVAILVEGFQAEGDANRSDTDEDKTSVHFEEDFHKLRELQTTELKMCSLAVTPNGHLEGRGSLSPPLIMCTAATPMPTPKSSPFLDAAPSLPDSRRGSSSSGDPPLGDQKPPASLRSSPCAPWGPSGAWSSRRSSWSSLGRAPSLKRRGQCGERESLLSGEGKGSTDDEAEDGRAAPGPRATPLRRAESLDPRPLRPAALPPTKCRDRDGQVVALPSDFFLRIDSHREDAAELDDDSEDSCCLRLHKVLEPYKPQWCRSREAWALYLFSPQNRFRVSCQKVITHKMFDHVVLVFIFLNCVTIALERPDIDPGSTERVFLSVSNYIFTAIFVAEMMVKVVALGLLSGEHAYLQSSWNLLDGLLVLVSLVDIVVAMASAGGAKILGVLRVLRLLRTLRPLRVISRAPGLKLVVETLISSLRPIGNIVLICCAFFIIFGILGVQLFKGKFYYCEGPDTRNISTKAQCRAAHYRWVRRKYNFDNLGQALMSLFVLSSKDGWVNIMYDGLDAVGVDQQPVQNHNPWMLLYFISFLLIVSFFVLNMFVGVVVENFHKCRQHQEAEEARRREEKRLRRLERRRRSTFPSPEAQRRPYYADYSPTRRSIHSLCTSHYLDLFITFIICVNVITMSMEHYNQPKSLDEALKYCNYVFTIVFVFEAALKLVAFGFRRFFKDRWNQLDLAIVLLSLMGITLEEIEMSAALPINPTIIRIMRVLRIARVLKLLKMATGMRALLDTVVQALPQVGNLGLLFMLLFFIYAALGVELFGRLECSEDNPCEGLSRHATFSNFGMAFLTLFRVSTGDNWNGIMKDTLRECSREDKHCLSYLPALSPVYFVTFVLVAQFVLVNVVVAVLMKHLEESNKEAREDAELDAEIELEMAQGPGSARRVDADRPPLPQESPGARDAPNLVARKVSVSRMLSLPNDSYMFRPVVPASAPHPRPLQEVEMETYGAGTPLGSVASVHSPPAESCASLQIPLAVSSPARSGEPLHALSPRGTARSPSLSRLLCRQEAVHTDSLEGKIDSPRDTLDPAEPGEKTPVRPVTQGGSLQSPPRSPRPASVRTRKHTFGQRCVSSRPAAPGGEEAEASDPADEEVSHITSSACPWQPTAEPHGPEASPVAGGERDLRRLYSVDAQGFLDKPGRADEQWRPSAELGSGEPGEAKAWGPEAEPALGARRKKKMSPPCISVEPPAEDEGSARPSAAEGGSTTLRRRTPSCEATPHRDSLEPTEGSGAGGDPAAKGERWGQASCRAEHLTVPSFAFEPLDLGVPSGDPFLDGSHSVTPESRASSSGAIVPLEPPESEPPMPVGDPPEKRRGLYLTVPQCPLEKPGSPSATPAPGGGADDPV

Cytochrome P450 2C19, sequence (P33261 whole entry): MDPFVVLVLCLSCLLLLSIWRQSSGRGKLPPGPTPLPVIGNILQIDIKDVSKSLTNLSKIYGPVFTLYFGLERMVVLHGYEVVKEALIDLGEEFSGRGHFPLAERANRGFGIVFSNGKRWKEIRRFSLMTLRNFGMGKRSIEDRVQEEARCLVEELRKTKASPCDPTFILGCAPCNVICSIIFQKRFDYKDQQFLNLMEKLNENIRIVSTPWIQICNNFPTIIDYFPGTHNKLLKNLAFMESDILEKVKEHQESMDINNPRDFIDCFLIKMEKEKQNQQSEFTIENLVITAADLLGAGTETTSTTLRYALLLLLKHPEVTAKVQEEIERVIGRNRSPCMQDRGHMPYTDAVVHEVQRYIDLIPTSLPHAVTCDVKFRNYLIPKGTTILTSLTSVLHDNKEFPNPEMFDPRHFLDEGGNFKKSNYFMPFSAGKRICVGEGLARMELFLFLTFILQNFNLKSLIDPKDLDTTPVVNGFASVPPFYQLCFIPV

Compound: COc1ccc(C(=O)NCc2cn3ccccc3n2)cc1
- AC50 (Cytochrome P450 2C19): 20 µM (inconclusive)
- AC50 (Cytochrome P450 3A4): 28.2 µM (inconclusive)
- AC50 (Cytochrome P450 2C9): inconclusive

Compound: Cc1ccc2[nH]c(C)c(/C=C3/C(=N)N4C(=NC3=O)SN=C4S(=O)(=O)C(C)C)c2c1
- IC50 (Leucine aminopeptidase): 7.16 µM (active)
- IC50 (Aminopeptidase N): 9.85 µM (active)
- IC50 [1]: 11.8 µM (not active)

Compound: CCN(c1ccccc1)S(=O)(=O)c1ccc(C(=O)NC2CCN(Cc3ccccc3)CC2)cc1
- IC50 [2]: > 80 µM (inactive)
- AC50 (INS1): 2.31 µM (active)

Compound: COC(=O)[C@@]1(Cc2ccccc2)[C@H]2C(=O)N(Cc3ccccc3)C(=O)[C@H]2[C@H]2CN=C(SCc3ccc(Cl)cc3)N21
- AC50 (HEK293): 6.5 µM (active)

Compound: Cc1ccc(CC(=O)N2CCN(c3ccc([N+](=O)[O-])cc3)CC2)cc1
- CC50 [3]: > 40 µM (active)

Compound: Cc1ccc(-n2nnnc2Sc2nc([N+](=O)[O-])nn2C)c(C)c1
- AC50 [4]: 39.6 µM (active)

Compound: Cn1nc(C(F)(F)F)c(/C=N/OC(=O)c2ccccc2)c1Cl
- AC50 (Cytochrome P450 2C9): inactive

Compound: CC(c1nc2ccccc2o1)N1C(=O)c2ccccc2C1=O (stereo not drawn)
- IC50 (Aminopeptidase N): 79.5 µM (active)

Compound: O=C(C#Cc1ccccc1)c1cccc([N+](=O)[O-])c1
- EC50 [5]: > 260 µM (inconclusive)
- AC50 [4]: 3.62 µM (active)
- AC50 [6]: 0.75 µM (active)

Compound: COc1ccccc1C1=NOC(COC(=O)c2ccc3ccccc3n2)C1 (stereo not drawn)
- AC50 (Cytochrome P450 2C9): inconclusive

Compound: COc1cccc(CNC(=O)C2CCN(Cc3cnn(-c4ccccc4)c3-n3cccc3)CC2)c1
- EC50 [7]: 9.81 µM (active)
